The record followed here is patent US5523314A, “Compounds useful as hypoglycemic agents and for treating Alzheimer's disease” (priority 1994, dated 1996).

Counter-ions that a name gives are not always drawn. Like-named read-outs stand apart in the source and are kept apart here.

The inhibition is the relative decrease from the control value, in per cent. What is called IC50 is the point on the concentration scale where inhibition reaches its midpoint. Read a low IC50 as greater potency.

In experiment [1] the test system is blood glucose level. Kind of experiment: Hypoglycemic activity in obese diabetic mice (Table 1). Type of experiment: in vivo, male viable yellow obese-diabetic mice. The note with it: Mus musculus, ip. As to the method: The hypoglycemic activity of the compounds of the present invention was determined by testing the efficacy of the compounds in vivo in male viable yellow obese-diabetic mice. The test procedure is described in detail below.
Test formulations were prepared by dissolving the test compound in a saline solution containing 2% Emulphor (a polyoxyethylated vegetable oil surfactant from GAP Corp.) to provide the dose level desired. Each test formulation was administered to six viable yellow obese-diabetic mice intraperitoneally at the beginning of the experiment. Blood glucose levels were determined immediately before the first dose and at 2 and 4 hours thereafter using glucose oxidase. A mean was taken of the 6 values obtained before the first dose and at the 2 and 4 hour intervals. In Table 1, Column 1 provides the example number of the test compound, Column 2 provides the dose level of compound tested, and Columns 3 and 4 provide a measurement of the test animal's blood glucose level 2 and 4 hours after test compound administration, respectively, as a percentage of the test animal' s pre-administration blood glucose level.

Experiment [2] has as its system blood glucose level. Nature of the experiment: Hypoglycemic activity in normal fed rats (Table 2). The experiment is classed as in vivo, male Sprague Dawley rats. The following applies: Rattus norvegicus. As to the method:
The procedure used in this test system is described below.
The desired dose level of each test formulation was administered to four rats by oral […] at the beginning of the experiment. Blood glucose levels were determined immediately before the first dose and at 3 and 5 hours thereafter by an enzymatic procedure employing glucose oxidase and peroxidase coupled with a chromogenic oxygen acceptor. A mean was taken of the 4 values obtained before the first dose and at the 3 and 5 hour intervals.

The target in another experiment is T1, Human liver cathepsin D (Homo sapiens, UniProt P07339).
T1 construct: purchased Athens Research and Technology, Athens, Ga; host or cells: human liver
Nature of the experiment: Cathepsin D inhibition, fluorometric assay (Tables 5 and 6). The note with it: for inhibition at 10 µg/mL (stock): Compound Stock Concentration 10.0 μg/ml; for inhibition at 4.15 µg/mL (stock): Compound Stock Concentration 4.15 μg/ml. Type of experiment: biochemical. As to the method:
Human liver cathepsin D (Athens Research and Technology, Athens, Ga.) was diluted in assay buffer, 200 mM NaOAc, pH 4.5, 150 mM NaCl to 500 ng/mL and then 100 μL of this cathepsin D solution was added to each well of a 96 well plate with the exception of control wells which received just 100 μL of assay buffer. […] Blank and enzyme control wells each received 5 μL of the DMSO vehicle.
After incubation at 37° C. for 30 minutes, cathepsin D activity was terminated by the addition of 100 μL per well of 400 mU/mL microsomal leucine aminopeptidase (EC 3.4.11.2, Sigma, St. Louis, Mo.) in 1M Tris-HCl, pH 8.0.
Following a two hour incubation at 37° C., to allow the aminopeptidase to release the fluorophore, 7-amido-4-methylcoumarin (AMC) from the products of cathepsin D cleavage, the plates were again analyzed in the fluorometer. In order to check for potential false positives, i.e., inhibitors of microsomal leucine aminopeptidase, residual aminopeptidase activity was monitored directly in each well by the addition of 20 μL/well of 2.5 mM Leu-pNA (Bachem Biosciences, Philadelphia, Pa.) in 10% DMSO.

Setting [3] is: 2 h, intraperitoneal, 2 hrs, read-out: Percent of Initial Blood Glucose Level After 2 hrs.
[4] abbreviates: 4 h, intraperitoneal, 4 hrs, read-out: Percent of Initial Blood Glucose Level After 4 hrs.
The mark [5] stands for this setting: 200 mg/kg, oral, 3 hrs, read-out: Percent of Initial Blood Glucose Level After 3 hrs.
The mark [6] stands for this setting: 200 mg/kg, oral, 5 hrs, read-out: Percent of Initial Blood Glucose Level After 5 hrs.
[7] abbreviates: oral, 3 hrs, read-out: Percent of Initial Blood Glucose Level After 3 hrs.
[8] abbreviates: oral, 5 hrs, read-out: Percent of Initial Blood Glucose Level After 5 hrs.
The mark [9] stands for this setting: intraperitoneal, 2 hrs, read-out: Percent of Initial Blood Glucose Level After 2 hrs.
[10] abbreviates: intraperitoneal, 4 hrs, read-out: Percent of Initial Blood Glucose Level After 4 hrs.

T1 sequence (P07339 169-412 limits assumed): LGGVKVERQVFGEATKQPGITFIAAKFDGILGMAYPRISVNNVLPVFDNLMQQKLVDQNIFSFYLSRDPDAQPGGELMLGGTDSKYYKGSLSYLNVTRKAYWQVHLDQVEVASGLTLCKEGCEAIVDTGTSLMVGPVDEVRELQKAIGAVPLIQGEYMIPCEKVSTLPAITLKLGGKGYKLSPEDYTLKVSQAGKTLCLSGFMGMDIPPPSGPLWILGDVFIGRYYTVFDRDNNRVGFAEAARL
T1 sequence (P07339 65-161 limits assumed): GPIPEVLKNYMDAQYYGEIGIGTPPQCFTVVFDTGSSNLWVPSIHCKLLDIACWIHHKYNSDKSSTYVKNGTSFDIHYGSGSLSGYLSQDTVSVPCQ

Turning to `CCCOc1ccc(C=C2SC(=S)NC2=O)cc1OCC` [Example 49, 5-[(3-ethoxy-4-propoxyphenyl)methylene]-2-thioxo-4-thiazolidinone], the response vs control in vivo at 50 mg/kg in the experiment with blood glucose level [1] (setting [3]) is 83 ± 5%; in the experiment on blood glucose level [1] (setting [4]), 77 ± 7%. In addition, the response vs control in vivo at 200 mg/kg in the experiment on blood glucose level [2] (setting [5]) was found to be 100%; with blood glucose level [2] (setting [6]) it was 98%.
For the molecule `CCCCCOc1ccc(CC2SCNC2=O)cc1OC` (stereo not shown) [Example 67, 5-[(3-methoxy-4-pentoxyphenyl)methyl]-4-thiazolidinone], the response vs control in vivo at 200 mg/kg in the experiment on blood glucose level [2] (setting [5]) came to 92%; with blood glucose level [2] (setting [6]) it was 88%.
With `Cc1cc(C=C2SC(=S)NC2=O)cc(C)c1O` [Example 62, 5-[(3,5-dimethyl-4-hydroxyphenyl)methylene]-2-thioxo-4-thiazolidinone], the response vs control in vivo at 200 mg/kg in the experiment with blood glucose level [2] (setting [5]) stood at 78%; with blood glucose level [2] (setting [6]), 53%.
For `CCCCCOc1ccc(C=C2SC(=S)N(C)C2=O)cc1OC` [Example 65, 5-[(3-methoxy-4-pentoxyphenyl)methylene]-2-thioxo-3-methyl-4-thiazolidinone], the response vs control in vivo at 200 mg/kg in the experiment with blood glucose level [2] (setting [5]) was 100%; in the experiment on blood glucose level [2] (setting [6]) it was 91%.
For the molecule `CCCOc1ccc(C=C2SC(=S)NC2=O)cc1` [Example 61, 5-[(4-propoxyphenyl)methylene]-2-thioxo-4-thiazolidinone], the response vs control in vivo at 50 mg/kg in the experiment with blood glucose level [1] (setting [4]) was 61 ± 5%. Further, the response vs control in vivo at 200 mg/kg with blood glucose level [2] (setting [5]) worked out at 89%; in the experiment on blood glucose level [2] (setting [6]), 82%.
Consider `CCCCOc1ccc(C=C2SC(=S)NC2=O)cc1OC` [Example 41, 5-[(3-methoxy-4-butoxyphenyl)methylene]-2-thioxo-4-thiazolidinone], for which the response vs control in vivo at 5 mg/kg with blood glucose level [1] (2 h, 5 mg/kg, intraperitoneal, 2 hrs, read-out: Percent of Initial Blood Glucose Level After 2 hrs.) is 93 ± 10%. Besides, in the experiment on blood glucose level [1] (2 h, 10 mg/kg, intraperitoneal, 2 hrs, read-out: Percent of Initial Blood Glucose Level After 2 hrs.), the response vs control in vivo at 10 mg/kg was found to be 80 ± 7%. Further, the response vs control in vivo at 50 mg/kg with blood glucose level [1] (setting [3]) worked out at 61 ± 3%. Also, the response vs control in vivo at 160 mg/kg in the experiment on blood glucose level [2] (setting [7]) turned out to be 76%; in the experiment with blood glucose level [2] (setting [8]), 67%.
Consider `CCOc1cc(C=C2SC(=S)NC2=O)ccc1OC` [Example 58, 5-[(3-ethoxy-4-methoxyphenyl)methylene]-2-thioxo-4-thiazolidinone], for which the results for the response vs control in vivo at 50 mg/kg with blood glucose level [1] (setting [3]) and in the experiment with blood glucose level [1] (setting [4]) were 67 ± 2% and 75 ± 5%, respectively. Besides, the response vs control in vivo at 200 mg/kg in the experiment on blood glucose level [2] (setting [5]) and in the experiment with blood glucose level [2] (setting [6]) was 100% throughout.
`COc1ccc(C=C2SC(=S)NC2=O)cc1` [Example 18, 5-[(4-methoxyphenyl)methylene]-2-thioxo-4-thiazolidinone]: the response vs control in vivo at 50 mg/kg was 89 ± 4% with blood glucose level [1] (setting [3]) and 88 ± 5% in the experiment on blood glucose level [1] (setting [4]). The molecule also returned an inhibition at 10 µg/mL (stock) against Human liver cathepsin D of 38%.
Turning to `COc1cccc(C=C2SC(=S)NC2=O)c1` [Example 25, 5-[(3-methoxyphenyl)methylene]-2-thioxo-4-thiazolidinone], the results for the response vs control in vivo at 25 mg/kg in the experiment on blood glucose level [1] (setting [9]) and in the experiment with blood glucose level [1] (setting [10]) were 84 ± 5% and 87 ± 6%, respectively. Further, the response vs control in vivo at 50 mg/kg in the experiment on blood glucose level [1] (setting [9]) amounted to 78 ± 4%; in the experiment on blood glucose level [1] (setting [10]) it was 74 ± 4%. The response vs control in vivo at 200 mg/kg with blood glucose level [2] (setting [5]) and in the experiment on blood glucose level [2] (setting [6]) was 100% throughout.
Regarding `CC(C)(C)c1cc(C=C2SC(=S)NC2=O)cc(C(C)(C)C)c1O` [Example 28, 5-[[3,5-bis(1,1-dimethylethyl)-4-hydroxyphenyl]methylene]-2-thioxo-4-thiazolidinone], the response vs control in vivo at 50 mg/kg in the experiment on blood glucose level [1] (setting [3]) was determined as 83 ± 9%; with blood glucose level [1] (setting [4]), 79 ± 7%. Further, the IC50 against Human liver cathepsin D amounted to 3.1 µM.
For `CS(=O)(=O)Nc1cccc(C=C2SC(=S)NC2=O)c1` [Example 1, 5-[(3-methanesulfonamidophenyl)methylene]-2-thioxo-4-thiazolidinone], the response vs control in vivo at 50 mg/kg in the experiment on blood glucose level [1] (setting [3]) was 82 ± 5%; with blood glucose level [1] (setting [4]), 75 ± 2%. The molecule further gave an inhibition at 10 µg/mL (stock) against Human liver cathepsin D of 36%.
As to `O=C1NC(=S)SC1=Cc1ccncc1` [Example 16, 5-[(4-pyridyl)methylene]-2-thioxo-4-thiazolidinone], the response vs control in vivo at 50 mg/kg worked out at 94 ± 8% with blood glucose level [1] (setting [3]) and 96 ± 9% in the experiment on blood glucose level [1] (setting [4]). The response vs control in vivo at 200 mg/kg in the experiment with blood glucose level [2] (setting [5]) is 92%; in the experiment with blood glucose level [2] (setting [6]), 79%.
Regarding `CCCCCOc1ccc(C=C2SCNC2=O)cc1OC` [Example 66, 5-[(3-methoxy-4-pentoxyphenyl)methylene]-4-thiazolidinone], the response vs control in vivo at 200 mg/kg was 100% with blood glucose level [2] (setting [5]) and 86% with blood glucose level [2] (setting [6]).
For `O=C1NC(=S)SC1=Cc1ccco1` [Example 15, 5-[(2-furanyl)methylene]-2-thioxo-4-thiazolidinone], the response vs control in vivo at 50 mg/kg in the experiment on blood glucose level [1] (setting [3]) worked out at 73 ± 5%; with blood glucose level [1] (setting [4]), 62 ± 4%. The response vs control in vivo at 167 mg/kg in the experiment with blood glucose level [2] (setting [7]) amounted to 84%; with blood glucose level [2] (setting [8]), 87%.
In the case of `COc1cc(C=C2SC(=S)NC2=O)cc(OC)c1OC` [Example 17, 5-[(3,4,5-trimethoxyphenyl)methylene]-2-thioxo-4-thiazolidinone], the response vs control in vivo at 50 mg/kg in the experiment with blood glucose level [1] (setting [3]) came to 88 ± 8%; in the experiment with blood glucose level [1] (setting [4]) it was 89 ± 10%. For the same molecule, the response vs control in vivo at 200 mg/kg with blood glucose level [2] (setting [5]) came out at 78%; in the experiment on blood glucose level [2] (setting [6]), 68%.
In the case of `O=C1NC(=S)SC1=C(c1ccccc1)c1ccccc1` [Example 4, 5-(diphenylmethylene)-2-thioxo-4-thiazolidinone], the response vs control in vivo at 50 mg/kg in the experiment on blood glucose level [1] (setting [3]) amounted to 91 ± 4%; with blood glucose level [1] (setting [4]), 72 ± 7%. The molecule further came in with an inhibition at 10 µg/mL (stock) against Human liver cathepsin D of 50%.
For `COc1ccc(C(=C2SC(=S)NC2=O)c2ccccc2)cc1` [Example 21, 5-[(4-methoxyphenyl)phenylmethylene]-2-thioxo-4-thiazolidinone], the response vs control in vivo at 50 mg/kg stood at 99 ± 4% with blood glucose level [1] (setting [3]) and 81 ± 6% in the experiment on blood glucose level [1] (setting [4]). This molecule showed an inhibition at 4.15 µg/mL (stock) against Human liver cathepsin D of 40%.
For `CCCCCOc1ccc(C=C2SC(=S)NC2=O)cc1OC` [Example 57, 5-[(3-methoxy-4-pentoxyphenyl)methylene]-2-thioxo-4-thiazolidinone sodium salt], the response vs control in vivo at 5 mg/kg in the experiment on blood glucose level [1] (2 h, read-out: Percent of Initial Blood Glucose Level After 2 hrs., 5 mg/kg, intraperitoneal, 2 hrs) stood at 82 ± 6%; in the experiment with blood glucose level [1] (4 h, read-out: Percent of Initial Blood Glucose Level After 4 hrs., 5 mg/kg, intraperitoneal, 4 hrs), 68 ± 5%. In addition, the response vs control in vivo at 10 mg/kg in the experiment on blood glucose level [1] (2 h, read-out: Percent of Initial Blood Glucose Level After 2 hrs., 10 mg/kg, intraperitoneal, 2 hrs) was 95 ± 3%; with blood glucose level [1] (4 h, read-out: Percent of Initial Blood Glucose Level After 4 hrs., 10 mg/kg, intraperitoneal, 4 hrs), 87 ± 6%. In addition, the response vs control in vivo at 200 mg/kg in the experiment on blood glucose level [2] (po, 3 h, read-out: Percent of Initial Blood Glucose Level After 3 hrs.) was 84%; in the experiment with blood glucose level [2] (po, 5 h, read-out: Percent of Initial Blood Glucose Level After 5 hrs.), 73%.
`O=C1NC(=S)SC1=Cc1cc(Cl)c(O)c(Cl)c1` [Example 55, 5-[(3,5-dichloro-4-hydroxyphenyl)methylene]-2-thioxo-4-thiazolidinone]: the values for the response vs control in vivo at 50 mg/kg with blood glucose level [1] (setting [3]) and with blood glucose level [1] (setting [4]) were 81 ± 3% and 75 ± 3%, respectively. The molecule also displayed an inhibition at 4.15 µg/mL (stock) on Human liver cathepsin D of 90%. Further, the “ability to inhibit cathepsin D” value on Human liver cathepsin D (compared to structurally similar compounds known in the art, in words) is listed as “surprising ability to inhibit cathepsin D levels”.
